{"source": "patent EP2669372A1", "about": "“HPPD variants and methods of use” (Bayer CropScience AG, priority 2010, dated 2012)", "assay_in_all_cases": "biochemical", "key": {"[1]": {"target": "T1, Arabidopsis HPPD single point mutant \"SEQ ID No. 35\" (Arabidopsis thaliana, UniProt P93836, E252S)", "T1 construct": "encoding mutant HPPD polypeptide, plus containing at the 5' end a nucleic acid encoding an alanine and 6 histidine amino acids; Ala + His6 behind Met1 (N); made in house; host or cells: E. coli BL21 (DE3) (described for the wild type construct)", "T1 sequence (P93836 whole entry E252S)": "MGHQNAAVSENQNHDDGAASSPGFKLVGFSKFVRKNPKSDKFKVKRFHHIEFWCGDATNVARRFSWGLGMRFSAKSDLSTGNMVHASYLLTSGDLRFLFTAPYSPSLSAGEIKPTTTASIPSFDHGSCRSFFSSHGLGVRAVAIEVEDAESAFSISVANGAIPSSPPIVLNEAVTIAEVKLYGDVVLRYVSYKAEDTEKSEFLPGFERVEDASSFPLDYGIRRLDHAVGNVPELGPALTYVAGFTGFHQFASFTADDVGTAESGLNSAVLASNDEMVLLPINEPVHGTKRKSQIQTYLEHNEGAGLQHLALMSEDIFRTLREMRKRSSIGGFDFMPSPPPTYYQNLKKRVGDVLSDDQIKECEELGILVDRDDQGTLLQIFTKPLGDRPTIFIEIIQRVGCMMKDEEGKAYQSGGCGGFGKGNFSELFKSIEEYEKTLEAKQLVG", "from_the_text": "(§1) In this content, pI50-value means the log value of the concentration of inhibitor necessary to inhibit 50% of the enzyme activity in molar concentration."}, "[2]": {"target": "T2, Arabidopsis HPPD single point mutant \"SEQ ID No. 40\" (Arabidopsis thaliana, UniProt P93836, V269A)", "T2 construct": "encoding mutant HPPD polypeptide, plus containing at the 5' end a nucleic acid encoding an alanine and 6 histidine amino acids; made in house; host or cells: E. coli BL21 (DE3) (described for the wild type construct)", "T2 sequence (P93836 whole entry V269A)": "as the sequence (P93836 whole entry E252S) above, with S252E, V269A counted along it", "from_the_text": "as §1"}, "[3]": {"target": "T3, Arabidopsis HPPD single point mutant \"SEQ ID No. 42\" (Arabidopsis thaliana, UniProt P93836, P280A)", "T3 construct": "encoding mutant HPPD polypeptide, plus containing at the 5' end a nucleic acid encoding an alanine and 6 histidine amino acids; made in house; host or cells: E. coli BL21 (DE3) (described for the wild type construct)", "T3 sequence (P93836 whole entry P280A)": "as the sequence (P93836 whole entry E252S) above, with S252E, P280A counted along it", "from_the_text": "as §1"}, "[4]": {"target": "T4, Arabidopsis HPPD single point mutant \"SEQ ID No. 44\" (Arabidopsis thaliana, UniProt P93836, L368M)", "T4 construct": "encoding mutant HPPD polypeptide, plus containing at the 5' end a nucleic acid encoding an alanine and 6 histidine amino acids; made in house; host or cells: E. coli BL21 (DE3) (described for the wild type construct)", "T4 sequence (P93836 whole entry L368M)": "as the sequence (P93836 whole entry E252S) above, with S252E, L368M counted along it", "from_the_text": "as §1"}, "[5]": {"target": "T5, Arabidopsis HPPD single point mutant \"SEQ ID No. 46\" (Arabidopsis thaliana, UniProt P93836, K421I)", "T5 construct": "encoding mutant HPPD polypeptide, plus containing at the 5' end a nucleic acid encoding an alanine and 6 histidine amino acids; made in house; host or cells: E. coli BL21 (DE3) (described for the wild type construct)", "T5 sequence (P93836 whole entry K421I)": "as the sequence (P93836 whole entry E252S) above, with S252E, K421I counted along it", "from_the_text": "as §1"}, "[6]": {"target": "T6, Arabidopsis HPPD single point mutant \"SEQ ID No. 48\" (Arabidopsis thaliana, UniProt P93836, K421Q)", "T6 construct": "encoding mutant HPPD polypeptide, plus containing at the 5' end a nucleic acid encoding an alanine and 6 histidine amino acids; made in house; host or cells: E. coli BL21 (DE3) (described for the wild type construct)", "T6 sequence (P93836 whole entry K421Q)": "as the sequence (P93836 whole entry E252S) above, with S252E, K421Q counted along it", "from_the_text": "as §1"}, "[7]": {"target": "T7, Arabidopsis HPPD single point mutant \"SEQ ID No. 50\" (Arabidopsis thaliana, UniProt P93836, K421V)", "T7 construct": "encoding mutant HPPD polypeptide, plus containing at the 5' end a nucleic acid encoding an alanine and 6 histidine amino acids; made in house; host or cells: E. coli BL21 (DE3) (described for the wild type construct)", "T7 sequence (P93836 whole entry K421V)": "as the sequence (P93836 whole entry E252S) above, with S252E, K421V counted along it", "from_the_text": "as §1"}}, "note": "Read-outs that look alike come from different tables or passages of the source."}
{"smiles": "Cc1nn(C)c(O)c1C(=O)c1ccc(C(F)(F)F)cc1S(C)(=O)=O", "note": "[Pyrasulfotole]", "values": [{"measurement": "IC50", "setting": "[1]", "result": 50.1, "unit": "µM"}, {"measurement": "IC50", "setting": "[2]", "result": 39.8, "unit": "µM"}, {"measurement": "IC50", "setting": "[3]", "result": 39.8, "unit": "µM"}, {"measurement": "IC50", "setting": "[4]; read-out: pI50 (converted)", "result": 10, "unit": "µM"}, {"measurement": "IC50", "setting": "[5]", "result": 50.1, "unit": "µM"}, {"measurement": "IC50", "setting": "[6]", "result": 15.8, "unit": "µM"}, {"measurement": "IC50", "setting": "[7]", "result": 39.8, "unit": "µM"}]}
{"smiles": "Cc1ccc(S(=O)(=O)Oc2c(C(=O)c3ccc(Cl)cc3Cl)c(C)nn2C)cc1", "note": "[Pyrazolat]", "values": [{"measurement": "IC50", "setting": "[1]", "result": 20, "unit": "µM"}, {"measurement": "IC50", "setting": "[2]", "result": 39.8, "unit": "µM"}, {"measurement": "IC50", "setting": "[3]", "result": 20, "unit": "µM"}, {"measurement": "IC50", "setting": "[4]", "result": 12.6, "unit": "µM"}, {"measurement": "IC50", "setting": "[5]", "result": 31.6, "unit": "µM"}, {"measurement": "IC50", "setting": "[6]", "result": 10, "unit": "µM"}, {"measurement": "IC50", "setting": "[7]", "result": 31.6, "unit": "µM"}]}
